Assay results published in patent US20250179126A1, “A NOVEL PEPTIDE FROM A PHOTOSYNTHETIC BACERIUM DIRECTLY TARGETS MITOCHONDRIA TO TRIGGER APOPTOSIS IN ADVANCED PROSTATE CANCER CELLS” (priority 2022, published 2025).
“Also recorded” adds a separate entry of the source.

Experiments:
[1] = test system: LNCaP prostate cancer cells; test: MTT cell viability assay, LNCaP prostate cancer cells; type: cell-based, human
Protocol: Cell lines and culture: Human cancer and noncancer (immortalized and nonimmortalized) cell lines were obtained from the American Type Culture Collection [prostate cancer (PC3, DU145 and LNCaP), normal prostate (CRL11611), breast cancer (MCF-7), ovarian cancer (SK-OV3 adenocarcinoma), lung cancer (A549)]. MDD2 breast cancer cells (p53 dominant-negative) were provided courtesy of Dr Andrei V. Gudkov, Roswell Park Cancer Institute. 20 All cell lines were cultured in MEM-E (Invitrogen) supplemented with 10% heat-inactivated fetal bovine serum (Atlanta Biological, Inc.), 100 units/mL penicillin, and 100 μg/mL streptomycin at 37° C. in 5% CO2.

PC3 cells [2] = test: Cellular membrane toxicity, LDH leakage assay; type: cell-based, human; conditions: PC3, 0.2-200 μM, 37° C.
Protocol: FIG. 6A-6B: Cellular membrane toxicity assays. […] Cells treated with lysis buffer were defined as having 100% LDH release. Mean±SE (N=3).
Cellular membrane toxicity: LDH assays were performed as we previously described (Cha et al., Cancer Research 2020, 80: 1615-1623).

[3] = test system: normal prostate CRL11611 cells; test: Annexin-V apoptosis assay by flow cytometry, normal prostate CRL11611; type: cell-based, human; conditions: normal CRL11611, 48 hr; Ptxl 1 nM, p28 50 μM, aurA/aurB 0.5-50 μM
Protocol: FIG. 7A-7D: Determination of apoptotic cell death. Prostate cancer cell lines (7A: LNCaP, 7B: DU145 and 7C: PC3) and normal prostate CRL11611 cells (7D) were exposed to the indicated agents for 48 hr and stained using apoptosis assay kits according to the manufacturer's instructions. The samples were analyzed by flow cytometry. Mean±SE (N=3).
After 48 hr, annexin-V apoptosis assays (Thermo Fisher Scientific) were conducted to detect apoptotic cells. At least 10,000 cells in each case were analyzed by FACS (RRC, UIC).

PC3 cells [4] = test: JC-1 mitochondrial membrane potential assay; type: cell-based, human
Protocol: Cells were stained by using JC-1 Mitochondrial Membrane Potential Assay Kits according to the manufacturer's instructions to measure mitochondrial membrane potential, and fluorescence was measured by flow cytometry. 9B, Caspase-3 is involved in aurB-induced apoptosis. […] The inhibitor was used at the indicated concentrations. Mean±SE (N=3).
JC-1 dye (Invitrogen) was used to determine mitochondrial membrane potential. […] After washing with PBS, trypsinized PC3 cells were incubated with JC-1 dye and analyzed by FACS.

PC3 xenograft tumors = test: PC3 xenograft animal model; type: in vivo, athymic mice
Source text: FIG. 10A-10D: Inhibition of PC3 xenograft tumor growth. 10A, When the s.c. tumors reached ˜5 mm, athymic mice were randomized into control (PBS) and i.p. treatment groups. Mean±SE (N=5). *P<0.01. […] 10C, At the end of treatment, tumors were dissected and weighed. * P<0.01. 10D, In sections of tumors from the control group, there was a marked increase in Ki-67-positive proliferating cells (stained brown and counterstained with haematoxylin, ×40), and only a few apoptotic cells were observed, as determined by TUNEL and caspase-3 (Casp-3) staining. There was an apparent sharp reduction in Ki-67-positive proliferating cells and a higher number of TUNEL-positive apoptotic cells in the aurB-treated group compared to the control group. Similarly, Casp-3 expression in aurB-treated tumors was increased markedly compared with that in untreated controls.
Xenograft animal model: Human prostate cancer cells (PC3) were injected s.c. into the right flanks of 5- to 6-week-old male athymic mice 78. When tumors reached 5 mm in diameter, animals were randomized into control and treatment groups. […] All animals were weighed twice a week. At necropsy, tumors were dissected and weighed. Statistical comparisons were performed by one-way analysis of variance (ANOVA) (control vs treatment). Tumor samples were fixed overnight in 10% buffered formalin. Fixation was followed by dehydration, clearing and infiltration. Samples were then embedded in paraffin, and 4 μm sections were cut on a microtome. Ki67 (LabVision) staining was performed on the tissue sections using a Vector Vectastain Elite ABC Kit. The TUNEL assay was performed on the sections using a Millipore Sigma ApopTag® Peroxidase In Situ Apoptosis Detection Kit.

[5] = tumor sections, aurB 5 mg/kg daily i.p.

## LVN GGD DVA AAV NTA AQN NAD ALF VPPP (LVNGGDDVAAAVNTAAQNNADALFVPPP) [aurB]
[1]; LNCaP (p53 wild-type, AR+), 24-72 hr, paclitaxel 1 nM
  cytotoxic effect (MTT cell viability): significantly induced dose-dependent cytotoxic effects; also recorded: more sensitive than the normal prostate cell line
[1]; LNCaP, 100 μM for 72 hr
  inhibition rate: ~50%
PC3 cells [2]
  cellular membrane toxicity (LDH release): Neither aurA nor aurB induced cellular membrane toxicity at any concentrations
[3]
  apoptotic cell death: less extent
PC3 cells [4]; PC3, 1 μM
  change of mitochondrial membrane potential (JC-1): 17%
PC3 cells [4]; PC3, 10 μM
  change of mitochondrial membrane potential (JC-1): 21%
PC3 cells [4]; PC3, 100 μM
  change of mitochondrial membrane potential (JC-1): 32%
PC3 cells [4]; PC3, 1, 10 and 100 μM
  effect on mitochondrial membrane potential (JC-1): dose-dependently increased
PC3 xenograft tumors; at end of treatment, aurB 5 mg/kg daily i.p.
  tumor weight: significantly decreased tumor weight
PC3 xenograft tumors; end of treatment, four weeks i.p., aurB 5 mg/kg daily, Ptxl 10 mg/kg once a week
  tumor growth inhibition vs PBS control: ~65%
PC3 xenograft tumors; four weeks i.p., aurB 5 mg/kg daily, p28 10 mg/kg daily
  antitumor effect on PC3 tumor growth: significantly inhibited
PC3 xenograft tumors; four weeks of i.p. treatment
  behavioral change, body weight: without inducing either a behavioral change or a loss in body weight
PC3 xenograft tumors; [5]
  Ki-67-positive proliferating cells in tumors: substantially reduce the number of proliferating Ki-67-positive cells
  TUNEL-positive apoptotic cells in tumors: number of apoptotic cells was increased
  caspase-3-positive cancer cells in tumors: substantial increase in caspase-3-positive cancer cells
